The values that follow come from patent US8785430B2, “Compound that can inhibit UBC13-UEV interactions, pharmaceutical compositions and therapeutic uses” (Consejo Superior de Investigaciones Cientificas, priority 2006, dated 2014).

One test has as its system PC-3 cells. The test is described as follows: CyQuant cell count, sensitization to doxorubicin. Particulars: Homo sapiens. The format is cell-based, human. On the procedure:
The addition of 100 μM of Ia reduced the IC50 of doxorubicin to 0.1 μM for PC-3 cells and the IC50 of etoposide to 0.04 μM for HeLa cells. Therefore, the treatment with 100 μM of compound Ia causes a sensitization to the cytotoxic effects of doxorubicin of 5 times (PC-3 cells) and a sensitization to the cytotoxic effects of etoposide of 30 times (HeLa cells).

Another test concerns PC-3.Sluc cells tumors. The test is described as follows: PC-3.Sluc tumor xenografts in Balb/c nu/nu mice, light emission (RLUs). It is filed as in vivo. As to conditions: doxorubicin alone i.v., 5 mg/Kg, once a week; 56 days. As for the experimental part: For the purpose of determining if Varubin has an in vivo antitumor activity, its effects in mice having tumors formed from PC-3 cells were analyzed. The experimental tumors were formed by means of the intramuscular inoculation of PC-3.Sluc cells. The latter are PC-3 prostate cells in which they have been integrated by means of transfecting plasmid pRC/CMV-luc, which expresses the firefly (Photinus pyralis) luciferase gene in mammalian cells q. The incubation of the PC-3.luc cells with D-luciferin, a luciferase substrate, produces light, which can be quantified in an absolute manner (number of photons) either by means of a luminometer or by means of detection with a CCD (charge-coupled device) camera. The latter process further allows representing in real time images of the location of the tumor cells in the inoculated animals, as well as the tumor size, since the intensity of the light (number of photons) emitted in the presence of luciferin is directly proportional to the number of PC-3.luc cells.
For these studies, 24 male Balb/c nu/nu mice (Charles River Laboratories) of an age of 6 weeks were used. These animals were kept in a pathogen-free environment at all times, having been kept in the animal housing facility for 1 week after they were received, before the experimental handling. After being anesthetized by means of an intraperitoneal (i.p.) injection of a mixture at equal parts of 6 mg/Kg of droperidol (Roche, Basel, Switzerland) and 12 mg/Kg of midazolam (Rovi S.A, Madrid, Spain), intramuscular (i.m.) injections were performed both in the right leg and in the left leg of each animal of 1×10^6 PC-3.Sluc cells, suspended in 100 μL of fetal bovine serum-free culture medium. The development of tumors in the inoculation sites was allowed for 2 weeks, after which a first measurement of photons emitted was made and a first capture of images with an ORCA-2BT Imaging System instrument (Hammamatsu Photonics) provided with a C4742-98-LWG-MOD model CCD camera (cooled at −80° C.) was done at a resolution of 512×512 pixels. […] Four minutes later, photons were detected and quantified for 5 minutes in the instrument described above. […] The quantification and the analysis of photons were performed with the aid of the image analysis program WASABI (Hamamatsu Photonics). […] For the graphic representations, the quantitative data (RLUs) were standardized, for each tumor, in relation to the RLUs of day 0 of treatment.
The 24 mice, having luminescent tumors in both legs, were included in 4 experimental groups: (1) Control group, in which an intravenous (i.v.) injection of 100 μL of phosphate buffered saline pH 7.4 (PBS) and 50 μL of intratumoral (i.t.) PBS was performed. […] The light emission of the tumors was analyzed throughout 56 days from the start of the treatment.

The test system of another test is HeLa cells. The test is described as follows: CyQuant cell count, sensitization to etoposide. As to conditions: Homo sapiens, HeLa, 24 h, read-out: IC50 for etoposide.

Where two headings read alike, the source gives them in different places.

For orientation: IC50 means the concentration that gives 50% inhibition. In the case of `COc1cccc2c1C(=O)c1c(O)c3c(c(O)c1C2=O)C[C@@](O)(C(=O)CO)C[C@@H]3O[C@H]1C[C@H](N)[C@H](O)[C@H](C)O1` [doxorubicin], the IC50 is roughly 500 nM in the test with PC-3 cells (72 hours of treatment, doxorubicin alone, read-out: IC50 for doxorubicin) and 100 nM in the test with PC-3 cells (plus 100 μM of Ia, read-out: IC50 of doxorubicin with addition of Ia). For the same compound, the “tumor growth (RLUs)” value in the test on PC-3.Sluc cells tumors was “hardly experienced growth”.

With `COc1cc([C@@H]2c3cc4c(cc3[C@@H](O[C@@H]3O[C@@H]5CO[C@@H](C)O[C@H]5[C@H](O)[C@H]3O)[C@H]3COC(=O)[C@H]23)OCO4)cc(OC)c1O` [etoposide, reference compound], in the test on HeLa cells, the IC50 is roughly 1250 nM.
